Experimental data taken from US20240165196A1, “Beta-Lactamase Inhibitors” (VIB VZW, priority 2021, published 2024).

Legend:
E. coli strain UZ_TEM104 = format: cell-based; settings: additive at fixed 50 μg/mL
TEM-1 = biological target: T1, TEM-1 (Escherichia coli, UniProt P62593); assay: thermal denaturation with right-angle/static light scattering (aggregation) in presence of beta-lactamase inhibitors; format: biochemical, E. coli
T1 construct: DNA TEM (870 bp) or SHV (894 bp) were each sub-cloned into a PUC57 vector cloning site NdeI/XhoI; His-tag (N); TEV cleavage site (N); made in house; host or cells: E. coli BL21 (DE3)
Source text: (FIG. 1E) Heat denaturation of TEM-1 monitored by intrinsic fluorescence plotted as the BaryCentric Mean (BCM) of the fluorescence emission spectrum in the presence (red) and absence (blue) of tazobactam. […] (FIG. 1F) Temperature-dependent evolution of the Right-Angle Light Scattering (RALS) intensity measured simultaneously with the data in FIG. 1G to monitor protein aggregation. […] (FIGS. 1G, 1H, 1I, and 1J) Same data as in FIG. 1F, but showing a dose-titration of different beta-lactamase inhibitors: tazobactam (FIG. 1G), clavulanate (FIG. 1H), vaborbactam (FIG. 1I) and avibactam (FIG. 1J). Each curve a single experiment, which was repeated in triplicate.
Then, we performed a thermal denaturation whilst simultaneously monitoring the intrinsic fluorescence as a measure of the folding status of the molecule (FIG. 1E), and the static light scattering as a measure of aggregation (FIG. 1F).

[1] = test system: TEM variants (TEM15, TEM30, TEM52, TEM10, TEM155); assay: aggregation (RALS temperature ramp) of recombinant TEM variants in presence and absence of tazobactam; format: biochemical; settings: presence versus absence of tazobactam
Source text: FIGS. 2A-2M. (FIG. 2A) TEM mutations and their effects on stability (total energy) as predicted by FoldX. […] Dashed line indicates a total energy difference of 0.5 kcal/mol, the FoldX cut-off above which mutations are considered to be destabilizing. (FIG. 2B) Barplot mapping mutations in (FIG. 2A) to the TEM sequence and indicating occurrence. […] The bar heights correspond to the number of times a mutation occurs across different TEM variants (right-hand y-axis). The color coding is identical to that in (FIG. 2A). Red line indicates the TANGO scores (indicated on the left-hand y-axis), with peaks corresponding to APRs. (FIG. 2C) Mapping of mutations in (FIG. 2A) and (FIG. 2B) to the TEM structure (pdb 1xpb). Protein surface is shown in gray, color coding of mutations is identical to (FIG. 2A) and (FIG. 2B). (FIGS. 2D, 2E, and 2F) Temperature-dependent evolution of the Right-Angle Light Scattering (RALS) intensity during a temperature ramp, similar as in FIG. 1F for key mutants of TEM1, namely TEM-10 (FIG. 2D), TEM-30 (FIG. 2E) and TEM-155 (FIG. 2F). Experiments were shown in triplicate, single repeat is shown. (FIG. 2G) Schematic representation of the structure of the peptides. APR—Aggregation Prone Region, R—Arginine. (FIG. 2H) Ribbon representation of the superposition of the crystal structures of TEM (green, pdb id 1bt5) and SHV (blue, pdb id 1shv). […]

[2] = test system: uro-pathogenic E. coli strain (UPEC strain blaTEM-1); assay: mouse Urinary Tract Infection (UTI) model; format: in vivo; settings: 30 mg/kg ampicillin plus 10 mg/kg test substance; 24 h
Experimental: FIGS. 4A-4K. […] IV—Intravenous, IP—Intraperitoneal, SC—Subcutaneously. The data shown is from a single experiment with 4 animals per group. […] (ns—non significant, #—P>0.05, *—P≤0.05, ***—P≤0.01, ****—P≤0.001). (FIG. 4G) FICI plot as in FIG. 2, for the E. coli strains indicated and the combination of penicillin and the TEM3.2 peptide. […] (FIG. 4J) Same as FIG. 4H for peptide BGAL. (FIG. 4K) Same as FIG. 4H for peptide P33.
Vehicle alone (0.9% NaCl) was also administered (IV).
To test the efficacy of the peptides, urinary tract infection model was performed as described previously^65. Briefly, female C57BL/6Jax mice female mice were deprived from water for at least one hour. […] Mice were slowly inoculated urethrally with 50 μL of a bacterial suspension slowly (10^8 CFU/mouse) using a sterile catheter (The plastic intravenous cannula of the paediatric intravenous-access cannula (GS391350) in the bladder over 5 s in order to avoid vesicoureteral reflux. The catheter was then removed directly after inoculation. After surgery, the animals were visually monitored for full recovery. After 1 h post-inoculation, all mice received ampicillin (30 mg/kg_PO-orally) and at the same time 3 groups of animals received the peptides via different administration routes (10mg/kg_IV—Intravenous; IP—Intraperitoneal or SC—sub-cutaneous) and the positive control groups received tazobactam (10 mg/Kg, PO). […]

SHV-11 = biological target: T2, SHV-11 (Klebsiella pneumoniae, UniProt P0AD64); assay: thermal denaturation with light scattering (aggregation) in presence of excess tazobactam; format: biochemical; settings: SHV-11, excess of tazobactam
T2 construct: DNA TEM (870 bp) or SHV (894 bp) were each sub-cloned into a PUC57 vector cloning site NdeI/XhoI; His-tag (N); TEV cleavage site (N); made in house; host or cells: E. coli BL21 (DE3)
T2 sequence (P0AD64 22-286 L31Q): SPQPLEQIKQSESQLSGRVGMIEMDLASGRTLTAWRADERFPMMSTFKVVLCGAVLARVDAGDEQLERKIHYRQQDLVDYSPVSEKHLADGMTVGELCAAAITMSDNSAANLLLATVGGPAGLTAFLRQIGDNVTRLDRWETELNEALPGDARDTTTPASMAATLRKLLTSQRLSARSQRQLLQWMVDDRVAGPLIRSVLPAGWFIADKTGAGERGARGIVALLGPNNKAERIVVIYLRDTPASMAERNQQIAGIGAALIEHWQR

T1 sequence (P62593 24-286 limits assumed): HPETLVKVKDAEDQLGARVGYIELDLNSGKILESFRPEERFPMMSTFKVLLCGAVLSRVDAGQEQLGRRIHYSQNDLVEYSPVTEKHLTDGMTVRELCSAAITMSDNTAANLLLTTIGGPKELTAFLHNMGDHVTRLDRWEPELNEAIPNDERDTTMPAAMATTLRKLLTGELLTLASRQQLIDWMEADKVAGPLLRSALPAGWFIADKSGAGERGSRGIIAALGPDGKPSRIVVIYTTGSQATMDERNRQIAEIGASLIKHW

## C[C@]1(Cn2ccnn2)[C@H](C(=O)O)N2C(=O)C[C@H]2S1(=O)=O [tazobactam]
E. coli strain UZ_TEM104
  reduction of the MIC of penicillin G: 4 fold
TEM-1; TEM-1, dose titration of inhibitor
  aggregation of the enzyme (static light scattering), dose-response: reduce the aggregation of the enzyme in a dose-responsive manner
TEM-1; TEM-1, excess of tazobactam, more marked than for SHV-11
  aggregation onset temperature Tagg: increase
[1]
  effect of tazobactam on aggregation of TEM variants: pharmacological chaperone effect
[2]
  best reduction of the bacterial load (up to): 1.8 log folds
SHV-11
  aggregation onset temperature Tagg: increase
